# Assay: Study HDP-CDV-201: safety and tolerability (adverse events, laboratory abnormalities, discontinuations)
# Assay type: in vivo, human (adult allogeneic HSCT recipients)
# Conditions: Cohort 4A
# Description: Clinical Studies of HDP-CDV were performed and described in detail in the following Examples. For example, HDP-CDV-201 is a placebo-controlled, dose-escalating trial in HSCT CMV (R+) recipients, evaluating the ability of HDP-CDV to prevent or control CMV infection was carried out. Five cohorts were established in which participants or subjects received either placebo or the HDP-CDV orally, in doses ranging from 40 mg weekly (QW) to 200 mg twice weekly (BIW). Subjects who were post-HSCT were enrolled at the time of engraftment and randomized to HDP-CDV or placebo (3 to 1 ratio) and received blinded therapy until approximately 100 day post-transplantation. HDP-CDV doses were 40 mg QW, 100 mg QW, 200 mg QW, 200 mg BIW and 100 mg BIW. Escalation to the next dose was decided by the data monitoring committee after review of the safety data from the previous Cohort. Subjects who developed CMV disease or CMV infection requiring pre-emptive therapy with local standard of care were discontinued from blinded therapy and followed for 4 weeks. Subjects who completed treatment with blinded therapy were followed for 8 weeks post-therapy.
# Data from Study HDP-CDV-201 also provided characterization of the safety and tolerability profile of HDP-CDV when administered for the prevention or control of CMV infection in high risk (R^+) post-HSCT adult subjects.
# The Safety population (SAFETY) included all randomized subjects who took at least one dose of study treatment. This population was used to summarize safety outcomes based on the treatment actually received, in cases where a subject was treated contrary to the randomization schedule.
# The safety and tolerability profile of HDP-CDV, including subject demographics and Baseline characteristics; the AE profile; and laboratory abnormalities of interest were analyzed in the cohorts followed in this investigation.
# Subjects completing the treatment period received a full course of study medication; those completing the entire study attended visits through 8 weeks of follow up. Subjects who discontinued treatment may have done so for protocol specified reasons (e.g. development of clinically significant CMV infection requiring preemptive treatment with excluded anti-CMV medications) or for other reasons (e.g., withdrawal, adverse events, loss to follow-up). The disposition of subjects in Study HDP-CDV-201 during the double-blind, placebo-controlled treatment period (through Week 11) is listed by dosing Cohort in TABLE 23.
# Adverse events were examined by severity to ensure that all safety signals were identified in this study population. Because of the frequency of events in HSCT recipients, particular attention was given to evaluation of Grade 3 […], 4 (severe), and 5 (fatal) adverse events.
# Only those preferred terms for which at least one Grade 3 or higher event was experienced in any treatment group are listed. Cytomegalovirus-related AEs are excluded from this analysis.
# HDP-CDV is a lipid conjugate of CDV. Because CDV is known to have adverse effects on renal function and bone marrow, decreased GFR and persistent neutropenia were identified as AEs of special interest. Key renal and hematological (TABLE 30) laboratory parameters were measured and listed below by Study HDP-CDV-201 treatment groups. TABLE 30 includes abnormal levels of serum creatinine, neutrophils, platelets, WBCs, and hemoglobin and includes data at Screening and during the treatment period.
# A common metric for unit based dosing of medications is by weight (mg/kg). When the distribution of weights was examined for all subjects participating in the study, the median was 78 kg and the lower 25th percentile weight was approximately 65 kg, which translates to a cut-off of ˜3 mg/kg for a 200 mg total weekly dose. Based upon this approach, a cut-off of 3 mg/kg was used to assess the frequency of diarrhea and associated GI AEs reported for the subjects in Cohorts 3 or 4a (TABLE 40).
structure (smiles),measurement,setting,value
CCCCCCCCCCCCCCCCOCCCOP(=O)(O)COC(CO)Cn1ccc(N)nc1=O (stereo not drawn) [HDP-CDV],"Intensity of Gastrointestinal AEs, Grade 1, subjects",100 mg BIW,12 (24.0%)
same,"Intensity of Gastrointestinal AEs, Grade 2, subjects",100 mg BIW,17 (34.0%)
same,"Intensity of Gastrointestinal AEs, Grade 3, subjects",100 mg BIW,10 (20.0%)
same,"Intensity of Gastrointestinal AEs, Grade 4, subjects",100 mg BIW,1 (2.0%)
same,"Intensity of Gastrointestinal AEs, Grade 5, subjects",100 mg BIW,0
same,"Serum ALT level, Median fold increase from Baseline at Follow-up Week 1",100 mg BIW,1.52 fold
same,"Serum ALT level, Median fold increase from Baseline at Follow-up Week 4",100 mg BIW,1.11 fold
same,"Serum ALT level, Peak Median fold increase from Baseline",100 mg BIW,2.86 fold
same,Subjects completed study,100 mg BIW,25 (50.0%) n (%)
same,"TEAE Abdominal pain Grade 2, subjects",100 mg BIW,1 (2.0%)
same,"TEAE Abdominal pain Grade 3, subjects",100 mg BIW,1 (2.0%)
same,"TEAE Abdominal pain Grade 4, subjects",100 mg BIW,0
same,"TEAE Abdominal pain Grade 5, subjects",100 mg BIW,0
same,"TEAE Abdominal pain Overall Frequency, subjects",100 mg BIW,13 (26.0%)
same,"TEAE Diarrhea Grade 2, subjects",100 mg BIW,6 (12.0%)
same,"TEAE Diarrhea Grade 3, subjects",100 mg BIW,9 (18.0%)
same,"TEAE Diarrhea Grade 4, subjects",100 mg BIW,0
same,"TEAE Diarrhea Grade 5, subjects",100 mg BIW,0
same,"TEAE Diarrhea Overall Frequency, subjects",100 mg BIW,26 (52.0%)
same,"TEAE Hypokalaemia Grade 2, subjects",100 mg BIW,2 (4.0%)
same,"TEAE Hypokalaemia Grade 3, subjects",100 mg BIW,2 (4.0%)
same,"TEAE Hypokalaemia Grade 4, subjects",100 mg BIW,0
same,"TEAE Hypokalaemia Grade 5, subjects",100 mg BIW,0
same,"TEAE Hypokalaemia, subjects",100 mg BIW,8 (16.0%)
same,"TEAE Nausea Grade 2, subjects",100 mg BIW,9 (18.0%)
same,"TEAE Nausea Grade 3, subjects",100 mg BIW,2 (4.0%)
same,"TEAE Nausea Grade 4, subjects",100 mg BIW,0
same,"TEAE Nausea Grade 5, subjects",100 mg BIW,0
same,"TEAE Nausea Overall Frequency, subjects",100 mg BIW,17 (34.0%)
same,"TEAE Vomiting Grade 2, subjects",100 mg BIW,8 (16.0%)
same,"TEAE Vomiting Grade 3, subjects",100 mg BIW,2 (4.0%)
same,"TEAE Vomiting Grade 4, subjects",100 mg BIW,0
same,"TEAE Vomiting Grade 5, subjects",100 mg BIW,0
same,"TEAE Vomiting Overall Frequency, subjects",100 mg BIW,22 (44.0%)
same,"Total Bilirubin (Screening) >1-[…] ULN, subjects",100 mg BIW,3 (6.5%)
same,"Total Bilirubin (Screening) >1.5-3 × ULN, subjects",100 mg BIW,2 (4.3%)
same,"Total Bilirubin (Screening) >3-10 × ULN, subjects",100 mg BIW,0
same,"Total Bilirubin (Screening) >10 × ULN, subjects",100 mg BIW,0
same,"Total Bilirubin (any time during therapy) >1-[…] ULN, subjects",100 mg BIW,5 (10.0%)
same,"Total Bilirubin (any time during therapy) >1.5-3 × ULN, subjects",100 mg BIW,3 (6.0%)
same,"Total Bilirubin (any time during therapy) >3-10 × ULN, subjects",100 mg BIW,1 (2.0%)
same,"Total Bilirubin (any time during therapy) >10 × ULN, subjects",100 mg BIW,0
same,excess of subjects with severe diarrhea as compared to placebo,100 mg BIW,13%
same,incidence of diarrhea,100 mg BIW,52%
same,"TEAE Abdominal pain Grade 2, subjects",100 mg BIW >3 mg/k,0
same,"TEAE Abdominal pain Grade 3, subjects",100 mg BIW >3 mg/k,0
same,"TEAE Abdominal pain Grade 4, subjects",100 mg BIW >3 mg/k,0
same,"TEAE Abdominal pain Grade 5, subjects",100 mg BIW >3 mg/k,0
same,"TEAE Abdominal pain Overall Frequency, subjects",100 mg BIW >3 mg/k,4 (40%)
same,"TEAE Diarrhea Grade 2, subjects",100 mg BIW >3 mg/k,3 (30%)
same,"TEAE Diarrhea Grade 3, subjects",100 mg BIW >3 mg/k,3 (30%)
same,"TEAE Diarrhea Grade 4, subjects",100 mg BIW >3 mg/k,0
same,"TEAE Diarrhea Grade 5, subjects",100 mg BIW >3 mg/k,0
same,"TEAE Diarrhea Overall Frequency, subjects",100 mg BIW >3 mg/k,6 (60%)
same,"TEAE Hypokalaemia Grade 2, subjects",100 mg BIW >3 mg/k,1 (10%)
same,"TEAE Hypokalaemia Grade 3, subjects",100 mg BIW >3 mg/k,2 (20.0%)
same,"TEAE Hypokalaemia Grade 4, subjects",100 mg BIW >3 mg/k,0
same,"TEAE Hypokalaemia Grade 5, subjects",100 mg BIW >3 mg/k,0
same,"TEAE Hypokalaemia, subjects",100 mg BIW >3 mg/k,3 (30%)
same,"TEAE Nausea Grade 2, subjects",100 mg BIW >3 mg/k,3 (30%)
same,"TEAE Nausea Grade 3, subjects",100 mg BIW >3 mg/k,1 (10%)
same,"TEAE Nausea Grade 4, subjects",100 mg BIW >3 mg/k,0
same,"TEAE Nausea Grade 5, subjects",100 mg BIW >3 mg/k,0
same,"TEAE Nausea Overall Frequency, subjects",100 mg BIW >3 mg/k,4 (40%)
same,"TEAE Vomiting Grade 2, subjects",100 mg BIW >3 mg/k,4 (40.0%)
same,"TEAE Vomiting Grade 3, subjects",100 mg BIW >3 mg/k,1 (10.0%)
same,"TEAE Vomiting Grade 4, subjects",100 mg BIW >3 mg/k,0
same,"TEAE Vomiting Grade 5, subjects",100 mg BIW >3 mg/k,0
same,"TEAE Vomiting Overall Frequency, subjects",100 mg BIW >3 mg/k,6 (60%)
same,"TEAE Abdominal pain Grade 2, subjects",100 mg BIW ≦3 mg/kg,1 (2.5%)
same,"TEAE Abdominal pain Grade 3, subjects",100 mg BIW ≦3 mg/kg,1 (2.5%)
same,"TEAE Abdominal pain Grade 4, subjects",100 mg BIW ≦3 mg/kg,0
same,"TEAE Abdominal pain Grade 5, subjects",100 mg BIW ≦3 mg/kg,0
same,"TEAE Abdominal pain Overall Frequency, subjects",100 mg BIW ≦3 mg/kg,9 (22.5%)
same,"TEAE Diarrhea Grade 2, subjects",100 mg BIW ≦3 mg/kg,3 (7.5%)
same,"TEAE Diarrhea Grade 3, subjects",100 mg BIW ≦3 mg/kg,6 (15%)
same,"TEAE Diarrhea Grade 4, subjects",100 mg BIW ≦3 mg/kg,0
same,"TEAE Diarrhea Grade 5, subjects",100 mg BIW ≦3 mg/kg,0
same,"TEAE Diarrhea Overall Frequency, subjects",100 mg BIW ≦3 mg/kg,20 (50%)^
same,"TEAE Hypokalaemia Grade 2, subjects",100 mg BIW ≦3 mg/kg,1 (2.5%)
same,"TEAE Hypokalaemia Grade 3, subjects",100 mg BIW ≦3 mg/kg,0
same,"TEAE Hypokalaemia Grade 4, subjects",100 mg BIW ≦3 mg/kg,0
same,"TEAE Hypokalaemia Grade 5, subjects",100 mg BIW ≦3 mg/kg,0
same,"TEAE Hypokalaemia, subjects",100 mg BIW ≦3 mg/kg,5 (12.5%)
same,"TEAE Nausea Grade 2, subjects",100 mg BIW ≦3 mg/kg,6 (15%)
same,"TEAE Nausea Grade 3, subjects",100 mg BIW ≦3 mg/kg,1 (2.5%)
same,"TEAE Nausea Grade 4, subjects",100 mg BIW ≦3 mg/kg,0
same,"TEAE Nausea Grade 5, subjects",100 mg BIW ≦3 mg/kg,0
same,"TEAE Nausea Overall Frequency, subjects",100 mg BIW ≦3 mg/kg,13 (32.5%)
same,"TEAE Vomiting Grade 2, subjects",100 mg BIW ≦3 mg/kg,4 (10%)
same,"TEAE Vomiting Grade 3, subjects",100 mg BIW ≦3 mg/kg,1 (2.5%)
same,"TEAE Vomiting Grade 4, subjects",100 mg BIW ≦3 mg/kg,0
same,"TEAE Vomiting Grade 5, subjects",100 mg BIW ≦3 mg/kg,0
same,"TEAE Vomiting Overall Frequency, subjects",100 mg BIW ≦3 mg/kg,16 (40%)^
same,Abdominal pain leading to study drug withdrawal,"100 mg BIW, N = 50",1 (2.0%)
same,All AEs leading to withdrawal,"100 mg BIW, N = 50",18 (36.0%)
same,Diarrhoea leading to study drug withdrawal,"100 mg BIW, N = 50",2 (4.0%)
same,Dyspepsia leading to study drug withdrawal,"100 mg BIW, N = 50",0%
same,Nausea leading to study drug withdrawal,"100 mg BIW, N = 50",1 (2.0%)
same,TEAE ALT increased,"100 mg BIW, N = 50",9 (18.0%) n (%)
same,TEAE AST increased,"100 mg BIW, N = 50",5 (10.0%) n (%)
same,TEAE Abdominal pain,"100 mg BIW, N = 50",13 (26.0%) n (%)
same,"TEAE Abdominal pain, Upper","100 mg BIW, N = 50",2 (4.0%) n (%)
same,TEAE Acute GVHD,"100 mg BIW, N = 50",32 (64.0%) n (%)
same,TEAE Acute Myeloid Leukemia recurrent,"100 mg BIW, N = 50",3 (6.0%) n (%)
same,TEAE Acute Renal Failure,"100 mg BIW, N = 50",1 (2.0%) n (%)
same,TEAE Anxiety,"100 mg BIW, N = 50",3 (6.0%) n (%)
same,TEAE Arthralgias,"100 mg BIW, N = 50",3 (6.0%) n (%)
same,TEAE Back Pain,"100 mg BIW, N = 50",4 (8.0%) n (%)
same,TEAE Blood lactate dehydrogenase increased,"100 mg BIW, N = 50",4 (8.0%) n (%)
same,TEAE Creatinine increased,"100 mg BIW, N = 50",7 (14.0%) n (%)

# Reference: patent US20140303092A1 (CHIMERIX, INC., priority 2011, published 2014)
